For assay [1], the system named is CCI-induced mechanical hyperalgesia. Put plainly: CCI-induced mechanical hyperalgesia (Randall-Selitto paw pressure). The settings on record: rat CCI, 30 μmol/kg oral. It is filed as in vivo. The method, then: CCI-Induced Mechanical Hyperalgesia
Male SD rats (Charles River, Italy) weighing 250 g were anaesthetized with sodium pentobarbital (60 mg/kg, intraperitoneal (i.p.), 0.1 ml/10 g) and, under a dissecting microscope, the right common sciatic nerve was exposed at the level of the mid thigh and, proximal to the trifurcation of the nerve; four ligatures (4/0 chromic silk, Ethicon) were loosely tied around it, at about 0.5 mm spacing, until they elicited a brief twitch in the respective hind, taking care to preserve epineural circulation. Sham-operated animals (sciatic exposure without ligation) were used as controls. 14 days after the surgery, mechanical hyperalgesia was assessed using an analgesimeter (Ugo Basile, Italy, Randall-Selitto analgesic apparatus). This device generated a mechanical force on the affected paw and the nociceptive threshold was defined as the force (in g) at which the rat withdraws the paw (with a cut-off of 450 g). Two baseline measurement values were obtained 75 and 45 min before the actual test. After the second baseline measurement, animals were randomly allocated to the different treatment groups. Paw pressure test was performed 0, 75, 120, 165, 210 and 300 min after the oral administration of the compounds. All tested compounds were orally administrated (30 μmol/kg/10 ml) to rats by gavage.

The next assay has as its target TRPV1 (Rattus norvegicus (Rat), UniProt O35433). Put plainly: Ca2+ fluorescence measurements in cultured rat dorsal root ganglia neurons (capsaicin-induced calcium uptake). It is filed as cell-based. The settings on record: rat DRG neurons; for inhibition at 0.3 µM: DRG neuron.
For assay [2], the system named is CFA-induced thermal hyperalgesia. Put plainly: CFA-induced thermal hyperalgesia in rats (Hargreaves' test). The class given is in vivo. The following applies: rat, 30 μmol/kg oral; read-out: reversal of CFA-induced thermal hyperalgesia (maximal reversal activity / % of reversion). The text has this: CFA-Induced Thermal Hyperalgesia in Rats
This method was used for the determination of acute nociceptive thermal threshold and combines a chemical stimulus and heat for measuring pain sensitivity. Male SD rats (Charles River, Italy) weighing 100 to 250 gr. were used. Anti-hyperalgesic effects were investigated by using the Hargreaves' test. Complete Freund's Adjuvant (CFA; Sigma, USA) was used to induce thermal hyperalgesia. CFA contains killed Mycobacterium tuberculosis and is designed to provide continuous release of antigens necessary for stimulating a strong, persistent immune response. This effect causes the reduction of the hind paw withdrawal response latency induced by heat during the Hargreaves' test. Thermal stimulation was performed 30, 60, 120 and 180 (240 min only if needed) minutes after the oral administration of the antagonists. During the CFA-induced thermal hyperalgesia experiments two different solubilization protocols were used: when items presented an amino group, a pH=2 aqueous solution of HCl and 2.5% Tween80 was used; otherwise molecules were suspended in 0.5% Methocel and 2.5% Tween80. Compounds were orally administrated (30 μmol/kg/10 ml) to rats 24 hours after the CFA treatment. CFA was injected into the plantar surface of a rat's hind paw at a fixed dose of 50 μl by the use of a micro syringe.

[3] abbreviates: Table 1, formula IA-C, 300 nM against calcium uptake induced by 30 nM capsaicin, read-out: % inhibition at 300 nM.
Where [4] appears, read: capsaicin-induced calcium uptake, read-out: inhibition of the calcium uptake.
[5] abbreviates: 300 nM, read-out: abolition of capsaicin response at 300 nM.
Where [6] appears, read: Table 1, against capsaicin-evoked [Ca2+]i mobilization, read-out: IC50.
The mark [7] stands for this setting: read-out: IC50 against capsaicin-evoked [Ca2+]i mobilization.
Setting [8] is: Table 2, formula ID-E, 300 nM against calcium uptake induced by 30 nM capsaicin, read-out: % inhibition at 300 nM.

In general, IC50 refers to the point on the concentration scale where inhibition reaches its midpoint.

Read-outs that look alike come from different tables or passages of the source.

TRPV1, sequence (O35433 whole entry): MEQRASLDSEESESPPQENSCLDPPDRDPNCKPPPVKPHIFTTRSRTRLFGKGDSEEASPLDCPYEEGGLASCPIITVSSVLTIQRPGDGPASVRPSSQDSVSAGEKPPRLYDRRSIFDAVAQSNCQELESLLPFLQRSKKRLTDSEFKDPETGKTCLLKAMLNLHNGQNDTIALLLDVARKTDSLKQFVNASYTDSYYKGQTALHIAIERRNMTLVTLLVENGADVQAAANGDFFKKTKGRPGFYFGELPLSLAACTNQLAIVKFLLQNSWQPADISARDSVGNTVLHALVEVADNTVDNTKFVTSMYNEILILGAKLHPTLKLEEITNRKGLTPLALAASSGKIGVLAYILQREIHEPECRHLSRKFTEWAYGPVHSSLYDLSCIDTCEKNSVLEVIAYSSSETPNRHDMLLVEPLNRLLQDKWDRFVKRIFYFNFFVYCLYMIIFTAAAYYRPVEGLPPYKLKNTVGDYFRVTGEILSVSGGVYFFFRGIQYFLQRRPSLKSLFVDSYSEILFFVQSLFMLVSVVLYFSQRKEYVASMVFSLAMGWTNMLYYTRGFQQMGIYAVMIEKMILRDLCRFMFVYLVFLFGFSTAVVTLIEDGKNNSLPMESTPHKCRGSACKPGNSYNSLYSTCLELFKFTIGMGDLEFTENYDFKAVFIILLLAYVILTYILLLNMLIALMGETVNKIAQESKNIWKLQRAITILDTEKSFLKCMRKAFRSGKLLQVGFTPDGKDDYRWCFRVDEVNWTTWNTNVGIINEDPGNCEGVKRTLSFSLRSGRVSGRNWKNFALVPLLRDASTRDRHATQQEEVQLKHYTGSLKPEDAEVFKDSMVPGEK

`O=C(NCc1ccc(C(F)(F)F)cc1)Nc1cccc2[nH]c(=O)[nH]c12` [Example 1, 1-(4-(trifluoromethyl)benzyl)-3-(2,3-dihydro-2-oxo-1H-benzo[d]imidazol-4-yl)urea]: the “anti-hyperalgesic activity (in words)” value in assay [1] is “relevant and long lasting anti-hyperalgesic activity”. Moreover, in assay [1], the “reversal of hyperalgesia within the first 2 hours” value (shortened to “reversal”) is reported as “at least 80%”. Moreover, the inhibition at 0.3 µM at TRPV1 (setting [3]) is 84%; on TRPV1 (setting [4]) it was over 80%.
Regarding `O=C(NCc1ccc(C(F)(F)F)cc1N1CCCCC1)Nc1cccc2[nH]c(=O)[nH]c12` [Example 6, 1-(4-(trifluoromethyl)-2-(piperidin-1-yl)benzyl)-3-(2,3-dihydro-2-oxo-1H-benzo[d]imidazol-4-yl)urea], in assay [1], the “anti-hyperalgesic activity (in words)” value was “relevant and long lasting anti-hyperalgesic activity”. Moreover, the “reversal” value in assay [1] is recorded as “at least 80%”. In addition, the inhibition at 0.3 µM at TRPV1 (setting [5]) is about 100%; at TRPV1 (setting [3]), 95%; on TRPV1 (setting [4]) it was over 80%. The IC50 on TRPV1 (setting [6]) and at TRPV1 (setting [7]) was 0.51 nM each time.
Regarding `O=C1COc2c(cccc2NC(=O)NCc2ccc(C(F)(F)F)cc2N2CCCC2)N1` [Example 47, 1-(4-(trifluoromethyl)-2-(pyrrolidin-1-yl)benzyl)-3-(3,4-dihydro-3-oxo-2H-benzo[b][1,4]oxazin-8-yl)urea], in assay [2], the inhibition in vivo at 30 µmol/kg was determined as 46%. For the same molecule, the inhibition at 0.3 µM was about 100% at TRPV1 (setting [5]), 100% at TRPV1 (setting [3]) and over 80% at TRPV1 (setting [4]). For the same molecule, the IC50 at TRPV1 (setting [6]) and at TRPV1 (setting [7]) was 0.7 nM each time.
Turning to `O=C1COc2c(cccc2NC(=O)NCc2ccc(C(F)(F)F)cc2N2CCCCC2)N1` [Example 48, 1-(4-(trifluoromethyl)-2-(piperidin-1-yl)benzyl)-3-(3,4-dihydro-3-oxo-2H-benzo[b][1,4]oxazin-8-yl)urea], the inhibition in vivo at 30 µmol/kg in assay [2] was found to be 45%. Moreover, the inhibition at 0.3 µM at TRPV1 (setting [5]) is about 100%; at TRPV1 (setting [3]), 100%; at TRPV1 (setting [4]), over 80%. Also, the IC50 on TRPV1 (setting [6]) and on TRPV1 (setting [7]) was 0.13 nM each time.
As to `O=C(NCc1ccc(Cl)cc1N1CCCCC1)Nc1cccc2[nH]c(=O)[nH]c12` [Example 13, 1-(4-chloro-2-(piperidin-1-yl)benzyl)-3-(2,3-dihydro-2-oxo-1H-benzo[d]imidazol-4-yl)urea], in assay [2], the inhibition in vivo at 30 µmol/kg is 60%. In assay [1], the “anti-hyperalgesic activity (in words)” value was “relevant and long lasting anti-hyperalgesic activity”. For the same molecule, the “reversal” value in assay [1] is on record as “at least 80%”. The inhibition at 0.3 µM at TRPV1 (setting [5]) was about 100%; on TRPV1 (setting [3]) it was 96%; at TRPV1 (setting [4]) it was over 80%. Besides, the IC50 on TRPV1 (setting [6]) and on TRPV1 (setting [7]) was 1.8 nM in each case.
As for `O=C(NCc1ccc(C(F)(F)F)o1)Nc1cccc2[nH]c(=O)[nH]c12` [Example 23, 1-(5-(trifluoromethyl-furan-2-yl)-methyl)-3-(2,3-dihydro-2-oxo-1H-benzo[d]imidazol-4-yl)urea], the inhibition in vivo at 30 µmol/kg in assay [2] worked out at 46%. Besides, the inhibition at 0.3 µM on TRPV1 (setting [3]) is 82%; on TRPV1 (setting [4]) it was over 80%. The IC50 at TRPV1 (setting [6]) was 108 nM.
For the molecule `Cc1ccc(CNC(=O)Nc2cccc3c2OCC(=O)N3)c(N2CCCCC2)c1` [Example 53, 1-(4-methyl-2-(piperidin-1-yl)benzyl)-3-(3,4-dihydro-3-oxo-2H-benzo[b][1,4]oxazin-8-yl)urea], the values for the inhibition at 0.3 µM at TRPV1 (setting [5]), at TRPV1 (setting [3]) and at TRPV1 (setting [4]) were about 100%, 90% and over 80%, respectively.
As for `O=C(Cc1ccc(C(F)(F)F)cc1)Nc1cccc2oc(=O)[nH]c12` [Example 56, 2-(4-(trifluoromethyl)phenyl)-N-(2,3-dihydro-2-oxobenzo[d]oxazol-4-yl)acetamide], the inhibition at 0.3 µM at TRPV1 (setting [8]) was 31%.
With `O=C(NCc1ccc(C(F)(F)F)cc1N1CCOCC1)Nc1cccc2oc(=O)[nH]c12` [Example 32, 1-(4-(trifluoromethyl)-2-(4-morpholino)benzyl)-3-(2,3-dihydro-2-oxobenzo[d]oxazol-4-yl)urea], the inhibition at 0.3 µM at TRPV1 (setting [3]) is 93%; at TRPV1 (setting [4]) it was over 80%.
Regarding `O=C(NCc1ccc(Cl)cc1)Nc1cccc2[nH]c(=O)[nH]c12` [Example 10, 1-(4-chlorobenzyl)-3-(2,3-dihydro-2-oxo-1H-benzo[d]imidazol-4-yl)urea], the inhibition at 0.3 µM was 89% on TRPV1 (setting [3]) and over 80% on TRPV1 (setting [4]). In addition, the IC50 on TRPV1 (setting [6]) is 79 nM.
Take `O=C(NCc1ccc(Cl)cc1C(F)(F)F)Nc1cccc2oc(=O)[nH]c12` [Example 28, 1-(4-chloro-2-(trifluoromethyl)benzyl)-3-(2,3-dihydro-2-oxobenzo[d]oxazol-4-yl)urea]: the inhibition at 0.3 µM on TRPV1 (setting [3]) came out at 40%.
Still for that read-out and setting: the result for `CN(C)CCOc1cc(C(F)(F)F)ccc1CNC(=O)Nc1cccc2c1OCC(=O)N2` [Example 92, 1-[[2-(2-dimethylaminoethoxy)-4-(trifluoromethyl)phenyl]methyl]-3-(3-oxo-4H-1,4-benzoxazin-8-yl)urea] reads 12%; that for `O=C1COc2cccc(NC(=O)NCc3ccc(C(F)(F)F)cc3N3CCCC3)c2N1` [Example 43, 1-(4-(trifluoromethyl)-2-(pyrrolidin-1-yl)benzyl)-3-(3,4-dihydro-3-oxo-2H-benzo[b][1,4]oxazin-5-yl)urea], 23%.
In the case of `O=C1COc2cccc(C(=O)NCc3ccc(C(F)(F)F)cc3)c2N1` [Example 62, N-(4-(trifluoromethyl)benzyl)-3,4-dihydro-3-oxo-2H-benzo[b][1,4]oxazine-5-carboxamide], the inhibition at 0.3 µM on TRPV1 (Table 3, formula IF-H, 300 nM against calcium uptake induced by 30 nM capsaicin, read-out: % inhibition at 300 nM) came to 8%.
Take `O=C(NCc1ccc(F)cc1C(F)(F)F)Nc1cccc2oc(=O)[nH]c12` [Example 27, 1-(4-fluoro-2-(trifluoromethyl)benzyl)-3-(2,3-dihydro-2-oxobenzo[d]oxazol-4-yl)urea]: on TRPV1 (setting [3]), the inhibition at 0.3 µM is 45%.
Consider `CC(C)(C)c1ccc(CNC(=O)Nc2cccc3[nH]c(=O)[nH]c23)cc1` [Example 70, 1-[(4-tert-butylphenyl)methyl]-3-(2-oxo-1,3-dihydrobenzimidazol-4-yl)urea], for which the values for the inhibition at 0.3 µM on TRPV1 (setting [5]), on TRPV1 (setting [3]) and at TRPV1 (setting [4]) were about 100%, 98% and over 80%, respectively.
Regarding `O=C(Cc1ccc(C(F)(F)F)cc1)Nc1cccc2c1NC(=O)CO2` [Example 58, 2-(4-(trifluoromethyl)phenyl)-N-(3,4-dihydro-3-oxo-2H-benzo[b][1,4]oxazin-5-yl)acetamide], the inhibition at 0.3 µM on TRPV1 (setting [8]) is 43%.
As to `O=C(Cc1ccc(C(F)(F)F)cc1)Nc1cccc2[nH]c(=O)oc12` [Example 57, 2-(4-(trifluoromethyl)phenyl)-N-(2,3-dihydro-2-oxobenzo[d]oxazol-7-yl)acetamide], on TRPV1 (setting [8]), the inhibition at 0.3 µM is 7%.
Turning to `O=C(NCc1ccc(C(F)(F)F)cc1Cl)Nc1cccc2[nH]c(=O)[nH]c12` [Example 3, 1-(2-chloro-4-(trifluoromethyl)benzyl)-3-(2,3-dihydro-2-oxo-1H-benzo[d]imidazol-4-yl)urea], the inhibition at 0.3 µM is 93% on TRPV1 (setting [3]) and over 80% on TRPV1 (setting [4]).
The corresponding values for `CC(C)Oc1nc(C(F)(F)F)ccc1CNC(=O)Nc1cccc2[nH]c(=O)[nH]c12` [Example 68, 1-[[2-isopropoxy-6-(trifluoromethyl)-3-pyridyl]methyl]-3-(2-oxo-1,3-dihydrobenzimidazol-4-yl)urea] are 93% and over 80%.
For `CN(C)CCOc1nc(C(F)(F)F)ccc1CNC(=O)Nc1cccc2c1OCC(=O)N2` [Example 91, 1-[[2-(2-dimethylaminoethoxy)-6-(trifluoromethyl)-3-pyridyl]methyl]-3-(3-oxo-4H-1,4-benzoxazin-8-yl)urea], on TRPV1 (setting [3]), the inhibition at 0.3 µM is 40%.

These data come from patent US10233177B2, “TRPV1 vanilloid receptor antagonists with a bicyclic portion” (Serentrix LLC, priority 2010, dated 2019).
